Publication PMC9365994, “Small molecules to regulate the GH/IGF1 axis by inhibiting the growth hormone receptor synthesis” (Frontiers in Endocrinology, 2022)

Legend:
GHR [1] = target: T1, GHR (Homo sapiens, UniProt P10912); test: Endogenous GHR levels in IM-9 human B lymphoblasts (immunoprecipitation); assay type: cell-based; conditions: for levels of GHR: IM-9 lymphoblasts, in 4 h
T1 construct: endogenous in cells; host or cells: IM-9 human B lymphoblasts
T1 sequence (P10912 19-638): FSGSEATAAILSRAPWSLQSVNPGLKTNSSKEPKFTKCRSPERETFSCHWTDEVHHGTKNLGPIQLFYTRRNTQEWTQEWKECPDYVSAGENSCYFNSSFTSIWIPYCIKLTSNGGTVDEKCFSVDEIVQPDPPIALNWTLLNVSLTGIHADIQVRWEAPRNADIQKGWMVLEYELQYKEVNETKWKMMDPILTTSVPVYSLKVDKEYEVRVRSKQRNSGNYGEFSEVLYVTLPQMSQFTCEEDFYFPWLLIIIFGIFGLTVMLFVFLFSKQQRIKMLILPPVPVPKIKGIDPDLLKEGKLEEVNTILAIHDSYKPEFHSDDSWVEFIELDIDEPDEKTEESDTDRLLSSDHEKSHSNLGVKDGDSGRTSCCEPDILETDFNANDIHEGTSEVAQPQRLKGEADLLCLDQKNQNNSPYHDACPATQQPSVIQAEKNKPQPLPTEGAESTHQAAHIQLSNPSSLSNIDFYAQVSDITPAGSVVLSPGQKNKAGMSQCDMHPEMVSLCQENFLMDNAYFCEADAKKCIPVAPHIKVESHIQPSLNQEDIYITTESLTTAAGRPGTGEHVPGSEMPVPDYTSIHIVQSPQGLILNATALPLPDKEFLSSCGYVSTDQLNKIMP
Procedure: (§1) For GHR-Jak2 co-immunoprecipitations, the cells were lysed in 20 mM Tris pH 8.0, 150 mM NaCl, 0.5% NP40, 1 mM PMSF, […]. Cell lysates were centrifuged to pellet the nuclei and the supernatants were used for GHR isolation in 1% Triton X-100, 0.5% SDS,0.25% sodium deoxycholate, 0.5% BSA, and inhibitors via immune precipitation with anti-GHR and protein A beads. Immunoprecipitates were subjected to reducing SDS-PAGE and transferred to Immobilon-FL polyvinylidenedifluoride membrane (Millipore). Blots were immunostained with the indicated primary antibodies followed by Alexa Fluor 680, Alexa-800 IRDye conjugated anti-mouse or anti-rabbit antibodies. Detection was performed with an Odyssey system (LI-COR Biosciences).
In the primary screen we used soluble fos-zipped GHR cytosolic tails that act in signaling complexes if co-expressed with Jak2. Initially, 6 scenarios were anticipated that can lower these signals. In the discovery itinerary we used the flow cytometer assay twice to find drugs that act on the GH-induced Jak2/STAT5 pathway and not on the identical GM/CSF-driven pathway ( Figure 3 , Figure S8 ). As the GM/CSF-induced Jak2/STAT5 pathway was not affected by the 2 hit compounds (BM004 and BM012), that served as prototypes for the final analogue selection, we excluded the possibility that they act on the Jak2 signaling pathway directly (scenario 1). To test scenario 2 (inhibition of fos-GHRct expression), we treated GHR-expressing Hek293T cells with a selection of drugs from the cell proliferation studies and analyzed the GHR species. […] The ratio between the amounts of GHR in the ER and at the PM reflects a steady state of synthesis (ER) and transport to the PM followed by endocytosis and degradation in the lysosomes. […] Because both species diminished, the drugs either inhibit the synthesis of GHR molecules or induce rapid GHR degradation in the ER. To decide between these possibilities, we performed in vitro translation experiments. […]
Figure 7 Effect of drugs on protein synthesis. […] The blots were detected with anti-GHR(B). […]

GHR [2] = target: T2, GHR (Oryctolagus cuniculus, UniProt P19941); test: GHR and pY-GHR immunoblot in GHR-transfected Hek293 cells stimulated with GH; assay type: cell-based, rabbit; conditions: for GHR HEK cells (GHR at PM and in ER): 10 µM drugs overnight; for GHR pY HEK cells: GH 10-15 min before lysis, drugs overnight/20 h
T2 construct: expressed in transfected cells; host or cells: Hek293 / Hek293T cells
T2 sequence (P19941 19-638): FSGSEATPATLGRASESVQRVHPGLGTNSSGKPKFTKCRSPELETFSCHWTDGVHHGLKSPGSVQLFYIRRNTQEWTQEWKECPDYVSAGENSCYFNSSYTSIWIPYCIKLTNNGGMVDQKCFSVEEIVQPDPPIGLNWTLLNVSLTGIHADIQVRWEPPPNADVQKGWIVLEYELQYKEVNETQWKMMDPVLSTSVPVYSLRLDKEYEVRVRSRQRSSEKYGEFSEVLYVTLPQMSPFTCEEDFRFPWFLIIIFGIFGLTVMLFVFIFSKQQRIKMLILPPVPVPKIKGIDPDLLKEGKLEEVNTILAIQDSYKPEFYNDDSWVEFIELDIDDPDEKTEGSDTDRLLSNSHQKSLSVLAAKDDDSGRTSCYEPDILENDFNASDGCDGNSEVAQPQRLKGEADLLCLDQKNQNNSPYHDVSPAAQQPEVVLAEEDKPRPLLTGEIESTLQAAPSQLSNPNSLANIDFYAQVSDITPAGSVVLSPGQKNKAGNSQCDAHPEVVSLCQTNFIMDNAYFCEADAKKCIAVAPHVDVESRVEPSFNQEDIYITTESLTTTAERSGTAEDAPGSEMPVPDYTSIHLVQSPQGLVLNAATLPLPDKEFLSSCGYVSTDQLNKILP
Procedure: as §1
In the primary screen we used soluble fos-zipped GHR cytosolic tails that act in signaling complexes if co-expressed with Jak2. Initially, 6 scenarios were anticipated that can lower these signals. In the discovery itinerary we used the flow cytometer assay twice to find drugs that act on the GH-induced Jak2/STAT5 pathway and not on the identical GM/CSF-driven pathway ( Figure 3 , Figure S8 ). As the GM/CSF-induced Jak2/STAT5 pathway was not affected by the 2 hit compounds (BM004 and BM012), that served as prototypes for the final analogue selection, we excluded the possibility that they act on the Jak2 signaling pathway directly (scenario 1). To test scenario 2 (inhibition of fos-GHRct expression), we treated GHR-expressing Hek293T cells with a selection of drugs from the cell proliferation studies and analyzed the GHR species. […] The ratio between the amounts of GHR in the ER and at the PM reflects a steady state of synthesis (ER) and transport to the PM followed by endocytosis and degradation in the lysosomes. […] Because both species diminished, the drugs either inhibit the synthesis of GHR molecules or induce rapid GHR degradation in the ER. To decide between these possibilities, we performed in vitro translation experiments. […] To exclude scenario 3 (inhibition of the GHR : Jak2 interaction) we replaced the proline residues in box-1 (the binding site for Jak2) with alanine residues. […] These findings render scenarios 4-6 (increased degradation of fos-pGHRct, increased degradation of Jak2, and dephosphorylation of fos-pGHRct) unlikely.
Figure 7 Effect of drugs on protein synthesis. (A): Effect of compounds on GHR. […] The amounts of GHR both at the plasma membrane (PM) and in the ER (ER) were decreased in the drug-treated cells. […] The cells were treated for GH for 10 min before lysis to be able to monitor the pY signals, after GHR isolation by immunoprecipitation (middle panels). The effect of the drugs on the pY signals reflected those of the GHR levels (only PM species were visible). In the presence of Ruxolitinib, the protein levels were unchanged, while the pY label (middle panel) was absent. […] This experiment represents the results of 6 independent repeats. (B): BM001 concentration effects on the synthesis of fos-GHRct in a HeLa cell cell-free system. […] In the right panel the 4 proline residues in box-1 were replaced by alanine residues. Empty vector (pcDNA) was used as control. The blots were detected with anti-GHR(B). The in vitro translation was performed 5 times that all show a clear inhibitory effect of BM001 on the GHR signal. (C): Effect of selected drugs on GHR levels in human lymphoblasts. IM‐9 human B lymphoblasts express endogenous GHR. […]

Structure (SMILES)	GHR HEK cells (GHR at PM and in ER) (GHR [2])	levels of GHR (GHR [1])	GHR pY HEK cells (GHR [2])	further results
Cc1nc(N)nc(N)c1/C=C/C1(c2ccc(C(F)(F)F)cc2)CC1 [BM001]	strongest effect	–	–	GHR in IM-9 cells (GHR [1]; drugs 4 hrs): depleted
COc1cc(CN(C)c2ccc3nc(N)nc(N)c3c2)cc(OC)c1OC [BM003]	–	~ 60%	–	–

Continued, in another order:

GHR HEK cells (GHR at PM and in ER) (GHR [2])	levels of GHR (GHR [1])	GHR pY HEK cells (GHR [2])	Structure (SMILES)	further results
–	~ 60%	–	Cc1c(-c2cccc(C#N)c2)ccc2nc(N)nc(N)c12 [BM002]	–
–	–	reduced	Cc1nc(N)nc(N)c1C#CC1(c2ccc(Cl)cc2)CC1 [BM004]	–
–	–	reduced	CCOc1cccc2nc(N)nc(N)c12 [BM012]	–
unchanged	–	absent	N#CC[C@H](C1CCCC1)n1cc(-c2ncnc3[nH]ccc23)cn1 [Ruxolitinib, reference compound]	–
